Test results reported in patent publication US20240336659A1, “CELL-PENETRATING PEPTIDE, ANTI-CANCER PEPTIDE, AND PHARMACEUTICAL COMPOSITION FOR PREVENTING OR TREATING CANCER, COMPRISING SAME” (ONECUREGEN CO., LTD., priority 2021, published 2024).
Positions of bridges follow the written chain, without caps; N, C: chain ends. Residues, ends and D or L forms follow the SMILES beside them. No end group written: not given here.

How the values were obtained:
[1] = tested on: lung normal cell line CCD39; conditions: CCD39, 30 μM and 60 μM
Method: (§1) To analyze the cytotoxicity of cell therapeutic peptide fragments on normal cell lines, lung normal cell lines WI38 and CCD39 were treated with OCP9 (SEQ ID NO: 16), OCP9-VGLLIS84-7CC (SEQ ID NO: 44), OCP9-VGLLIS84-9CC (SEQ ID NO: 46) and OCP9-VGLL1S84-11CC (SEQ ID NO: 48) at 30 μM and 60 μM, respectively, and the growth degrees of the cell lines were evaluated.

[2] = tested on: lung normal cell line WI38; conditions: WI38, 30 μM and 60 μM
Method: as §1

[3] = tested on: stomach cancer cell line NUGC3; experiment: Cell growth inhibition (sulforhodamine B staining); format: cell-based; conditions: for cancer cell growth inhibitory effect: NUGC3, 10 μM screening of Table 4 peptides
Method: Specifically, in order to confirm cell growth ability, a stomach cancer cell line NUGC3 and a breast cancer cell line SK-BR-3 were each subcultured in a 96-well plate, and the next day, peptide fragments Con, 7, and CC of Table 2 were treated with 100 μM each to the cell lines. After 72 hours, the cells were immobilized with a 10% trichloroacetic acid solution, and then stained the cell with a 0.4% sulforhodamine B solution for 1 hour, washed with acetic acid, and dried. Thereafter, the dried cells were dissolved in a 10 mM Tris solution and absorbance was measured at 510 nm using an ELISA plate reader.
In order to compare the cancer cell growth inhibitory effects of cancer therapeutic peptides according to cell-penetrating peptides, the stomach cancer cell line NUGC3 was treated with 10 μM each of cancer therapeutic peptide fragments in Table 4, and the cancer cell growth inhibitory effects were screened in the same manner as in Example 1.
Specifically, in order to confirm the cancer cell inhibition enhancing effect by enhancing the cell permeability of OCP5 among the novel synthesized CPPs, a cancer therapeutic peptide fragment represented by SEQ ID NO: 6 including the existing TAT and a cancer therapeutic peptide fragment represented by SEQ ID NO: 31 including the novel synthesized OCP5 were used. The stomach cancer cell lines NUGC3 and AGS, the breast cancer cell line SK-BR-3, and the pancreatic cancer cell line Capan-1 were treated with 25 μM SEQ ID NO: 6 and 100 μM SEQ ID NO: 31 for 72 hours, respectively, and the cancer cell growth inhibitory effects were compared in the same manner as in Example 1. […] Through this, it was confirmed that the novel CPP may be applied more effectively than the existing TAT to inhibit the cancer cell growth by the anticancer peptides.
To analyze the cancer cell growth inhibitory effect according to a length of the anticancer peptide fragment, OCP9-VGLLIS84-7 (SEQ ID NO: 43), OCP9-VGLLIS84-9CC (SEQ ID NO: 46), and OCP9-VGLLIS84-15 (SEQ ID NO: 49) were treated for each concentration to analyze the growth inhibitory effects of stomach cancer cell lines NUGC3 and NCI-N87. When stomach cancer cells were treated with cancer therapeutic peptides, the cancer cell growth inhibitory efficacy was shown in a concentration-dependent manner. In addition, it was confirmed that the growth inhibitory effect on the stomach cancer cell lines increased as the length of the anticancer peptide fragment increased (FIG. 7).
Specifically, the cancer cell growth inhibitory effect according to partial or entire cyclization of the anticancer peptide fragment was analyzed. The stomach cancer cell line NUGC3 was treated with a CPP fragment OCP9 (SEQ ID NO: 16), a partially cyclized sequence […] (SEQ ID NO: 33), or a sequence OCP9-VGLLIS84-7CC (SEQ ID NO: 40) including an entirely cyclized anticancer peptide at different concentrations of 1, 2.5, 5, 10, and 20 μM, respectively, and the cancer cell growth inhibitory effects were compared in the same manner as in Example 1.

cell line NUGC3 = experiment: Cell permeability of FITC-conjugated peptides by FACS; format: cell-based; conditions: NUGC3, 1.5 or 2.5 μM FITC-conjugated peptide, 3 hours; compared to TAT
Method: To quantitatively measure the cell permeability of the novel synthesized cell-penetrating peptides, 1.5 or 2.5 μM FITC-conjugated peptides were administered to the cell line NUGC3 or the normal cell line WI38, and after 3 hours, the amounts of FITC present in the cells were measured by FACS.

CC[C@H](C)[C@@H]1NC(=O)[C@H](CCCNC(=N)N)NC(=O)[C@H](Cc2ccccc2)NC(=O)[C@H]([C@@H](C)CC)NC(=O)[C@H]([C@@H](C)CC)NC(=O)[C@H](CO)NC(=O)[C@@H](N)CSSC[C@@H](C(=O)O)NC(=O)[C@H](CCCCN)NC(=O)[C@H]([C@@H](C)O)NC(=O)[C@H](Cc2c[nH]c3ccccc23)NC(=O)[C@@H]2CCCN2C(=O)[C@H](CO)NC(=O)[C@H](CO)NC(=O)[C@H](Cc2ccc(O)cc2)NC(=O)[C@H](CCCNC(=N)N)NC(=O)[C@H](CCCNC(=N)N)NC(=O)[C@H](CCCNC(=N)N)NC(=O)[C@H](CCCNC(=N)N)NC(=O)[C@H](CCCNC(=N)N)NC(=O)[C@H](Cc2ccccc2)NC1=O [OCP9-VGLL1S84-7CC, CSIIFRIFRRRRR-YSSPWTKC] (HELM PEPTIDE1{C.S.I.I.F.R.I.F.R.R.R.R.R.Y.S.S.P.W.T.K.C}$PEPTIDE1,PEPTIDE1,1:R3-21:R3$$$V2.0)
cytotoxicity (growth inhibitory or abnormal effect) [1]: no cytotoxicity
cytotoxicity (growth inhibitory or abnormal effect) [2]: no cytotoxicity

CC[C@H](C)[C@@H]1NC(=O)[C@H](CCCNC(=N)N)NC(=O)[C@H](Cc2ccccc2)NC(=O)[C@H]([C@@H](C)CC)NC(=O)[C@H]([C@@H](C)CC)NC(=O)[C@H](CO)NC(=O)[C@@H](N)CSSC[C@@H](C(=O)O)NC(=O)[C@H](CCCCN)NC(=O)[C@H]([C@@H](C)O)NC(=O)[C@H](Cc2c[nH]c3ccccc23)NC(=O)[C@@H]2CCCN2C(=O)[C@H](CO)NC(=O)[C@H](CO)NC(=O)[C@H](Cc2ccc(O)cc2)NC(=O)[C@H](CCCNC(=N)N)NC(=O)[C@H](Cc2c[nH]c3ccccc23)NC(=O)[C@H](CCCNC(=N)N)NC(=O)[C@H](CCCNC(=N)N)NC(=O)[C@H](CCCNC(=N)N)NC(=O)[C@H](CCCNC(=N)N)NC(=O)[C@H](CCCNC(=N)N)NC(=O)[C@H](Cc2ccccc2)NC1=O [OCP9-VGLL1S84-9CC, CSIIFRIFRRRRR-WRYSSPWTKC] (HELM PEPTIDE1{C.S.I.I.F.R.I.F.R.R.R.R.R.W.R.Y.S.S.P.W.T.K.C}$PEPTIDE1,PEPTIDE1,1:R3-23:R3$$$V2.0)
cytotoxicity (growth inhibitory or abnormal effect) [1]: no cytotoxicity
cytotoxicity (growth inhibitory or abnormal effect) [2]: no cytotoxicity

CC[C@H](C)[C@@H]1NC(=O)[C@H](CCCNC(=N)N)NC(=O)[C@H](Cc2ccccc2)NC(=O)[C@H]([C@@H](C)CC)NC(=O)[C@H]([C@@H](C)CC)NC(=O)[C@H](CO)NC(=O)[C@@H](N)CSSC[C@@H](C(=O)O)NC(=O)[C@H](CCCCN)NC(=O)[C@H]([C@@H](C)O)NC(=O)[C@H](Cc2c[nH]c3ccccc23)NC(=O)[C@@H]2CCCN2C(=O)[C@H](CO)NC(=O)[C@H](CO)NC(=O)[C@H](Cc2ccc(O)cc2)NC(=O)[C@H](CCCNC(=N)N)NC(=O)[C@H](Cc2c[nH]c3ccccc23)NC(=O)[C@H](CCC(N)=O)NC(=O)[C@H](CC(N)=O)NC(=O)[C@H](CCCNC(=N)N)NC(=O)[C@H](CCCNC(=N)N)NC(=O)[C@H](CCCNC(=N)N)NC(=O)[C@H](CCCNC(=N)N)NC(=O)[C@H](CCCNC(=N)N)NC(=O)[C@H](Cc2ccccc2)NC1=O [OCP9-VGLL1S84-11CC, CSIIFRIFRRRRR-NQWRYSSPWTKC] (HELM PEPTIDE1{C.S.I.I.F.R.I.F.R.R.R.R.R.N.Q.W.R.Y.S.S.P.W.T.K.C}$PEPTIDE1,PEPTIDE1,1:R3-25:R3$$$V2.0)
cytotoxicity (growth inhibitory or abnormal effect) [1]: no cytotoxicity
cytotoxicity (growth inhibitory or abnormal effect) [2]: no cytotoxicity

KKKKRKVRGDSI (OCP15)
cancer cell growth inhibitory effect [3]: excluding

KKKKRKVSIIFIRGD (OCP16)
cancer cell growth inhibitory effect [3]: excluding

KKKKRKVSIIFRIF (OCP18)
intracellular permeability (amount of FITC in the cells) (cell line NUGC3): significantly increased

KKKKRKVSIRGD (OCP17)
cancer cell growth inhibitory effect [3]: excluding

RRRRRGDSIIF (OCP13)
cancer cell growth inhibitory effect [3]: excluding

RRRRRSIIFRGD (OCP12)
cancer cell growth inhibitory effect [3]: excluding

SIIFRIFLHLQK (OCP1)
cell permeability (as concluded from the growth inhibition screening) ([3]; NUGC3, 10 μM screening): increased

SIIFRIFLHLQK-CYSSPWTKC (SIIFRIFLHLQKCYSSPWTKC; disulfide 13-21) [SEQ ID NO: 31]
cancer cell growth inhibitory effect [3]: significant cancer cell growth inhibitory effect

SIIFRIFRRRRR (OCP9)
intracellular permeability (amount of FITC in the cells) (cell line NUGC3): significantly increased
